# Laboratory results published in the SangsterLogP compilation.
# Tests used:
# [1] = method code SF-RC, from Fauchere, J.; Pliska, V. (1983). Hydrophobic parameters of aminoacid side chains from the partitioning of N-acetylaminoacid amides. Eur J Med Chem, 18(4)369-375.; settings: pH 7.1
# [2] = method code SF-CR+AS, from Fauchere, J.; Pliska, V. (1983). Hydrophobic parameters of aminoacid side chains from the partitioning of N-acetylaminoacid amides. Eur J Med Chem, 18(4)369-375.; settings: pH 7.1
Compound,logD [1],logD [2]
CC(=O)N[C@@H](CC(C)C)C(N)=O,-0.13,–
CC(=O)NC(C(N)=O)C(C)O (configuration not stated),-1.57,–
CC(=O)N[C@H](CS)C(N)=O,–,-0.29
CC(=O)N[C@@H](Cc1cnc[nH]1)C(N)=O,-1.7,–
CC(=O)NC(CCC(N)=O)C(N)=O (configuration not stated),-2.05,–
CC(=O)N[C@@H](CO)C(N)=O,-1.87,–
CC(=O)N[C@H](C(N)=O)C(C)C,-0.61,–
CC(=O)NC(=O)C(N)CSSCC(N)C(=O)NC(C)=O (configuration not stated),–,-1.7
CCC(C)C(NC(C)=O)C(N)=O (configuration not stated),-0.03,–
CC(=O)N[C@@H](CC(N)=O)C(N)=O,-2.41,–
CC(=O)N1CCC[C@H]1C(N)=O,-1.34,–
CC(=O)NC(CC12CC3CC(CC(C3)C1)C2)C(N)=O (configuration not stated),1.9,–
